# According to patent US20060189682A1, “Water soluble prodrugs of COX-2 inhibitors” (priority 2005, published 2006):
# Read-outs that look alike come from different tables or passages of the source.
# Key:
# [1] = Plasma levels of pro-drug and desired COX-2 inhibitor after i.v. dosing in Sprague-Dawley rats; format: in vivo; details: for Pharmacokinetic characteristics / In vivo conversion to parent drug in plasma / Levels of pro-drug in vivo: 2 mg/kg i.v.; for Pharmacokinetic characteristics / concentration at 30 min / In vivo conversion to parent drug in plasma: rat; for concentration at 30 min: iv, plasma, 2 mg/kg i.v. dose of pro-drug, Sprague-Dawley rats, value @ 30 min, read-out: Levels of Pro-Drug @ 0.5 hr; for In vivo conversion to parent drug in plasma: plasma at 30 min; for Levels of pro-drug in vivo: rat model
# Method: (§1) The physiochemical properties of Examples 1-6 and their ability to behave as pro-drugs and release in vivo the parent drug (the desired COX-2 inhibitor 5(S)-ethyl-3-isopropoxy-4-(4-methanesulfonylphenyl)-5-methyl-5H-furan-2-one) were examined. […] To ascertain the rates of conversion of the pro-drugs in vivo, the compounds were dosed as a saline solution of the salt form (except for 1, which was dosed in a PEG-400 solution) in Sprague-Dawley rats at 2 mg/kg intravenously. Plasma levels were measured for levels of the respective pro-drug and the desired COX-2 inhibitor at 5, 15, 30, and 60 min time points. The plasma levels measured at 30 minutes are given below (Table 1).
# [2] = Solubility in deionized water @ 25° C.; format: physicochemical
# Method: as §1
# [3] = Stability of 4 mg/mL solution in water, judged @ 24 hr by LC-MS/HPLC; format: physicochemical; details: after 24 hr in water, HPLC analysis
# Method: as §1
# infarct volume = details: MCAO stroke model; cited from earlier work
# [4] = background statement; cited from earlier work
# [5] = saline solution of the salt form
# [6] = deionized water, 25 °C, water, read-out: Solubility
Compound,Pharmacokinetic characteristics [1],"solubility [2, 6] [µg/mL]",In vivo conversion to parent drug in plasma [1],further results
"CC[C@]1(C)OC2(OCC(COP(=O)([O-])OCC[N+](C)(C)C)O2)C(OC(C)C)=C1c1ccc(S(C)(=O)=O)cc1 (stereo in doubt) [Example 3, 2-{[({(2R,7S)-7-ethyl-9-isopropoxy-7-methyl-8-[4-(methylsulfonyl)phenyl]-1,4,6-trioxaspiro[4.4]non-8-en-2-yl}methoxy)(hydroxy)phosphoryl]oxy}-N,N,N-trimethylethanaminium]",superior pharmacokinetic characteristics,> 10000,–,"concentration at 30 min [1, 5]: 200 nM; solubility [2]: >20000 µg/mL"
"CC[C@]1(C)OC2(OCC(CO)O2)C(OC(C)C)=C1c1ccc(S(C)(=O)=O)cc1 (stereo partly drawn) [Example 1, {(7S)-7-ethyl-9-isopropoxy-7-methyl-8-[4-(methylsulfonyl)phenyl]-1,4,6-trioxaspiro[4.4]non-8-en-2-yl}methanol]",superior pharmacokinetic characteristics,< 1000,converted to yield appreciable levels of the parent drug,concentration at 30 min ([1]; dosed in PEG-400 solution): 1400 nM; solubility [2]: <1000 µg/mL
"CC[C@]1(C)OC2(OCC(COC(=O)CCC(=O)[O-])O2)C(OC(C)C)=C1c1ccc(S(C)(=O)=O)cc1.[Na+] (stereo partly drawn) [Example 2, Sodium 4-({(7S)-7-ethyl-9-isopropoxy-7-methyl-8-[4-(methylsulfonyl)phenyl]-1,4,6-trioxaspiro[4.4]non-8-en-2-yl}methoxy)-4-oxobutanoate]",superior pharmacokinetic characteristics,2000,converted to yield appreciable levels of the parent drug,"concentration at 30 min [1, 5]: < 100 nM"
"CC[C@]1(C)O/C(=N\[C@@H](CO)C(=O)[O-])C(OC(C)C)=C1c1ccc(S(C)(=O)=O)cc1.[K+] [Example 4, N-[(5S)-5-ethyl-3-isopropoxy-5-methyl-4-[4-(methylsulfonyl)phenyl]furan-2(5H)-ylidene]-L-serine potassium salt]",–,> 10000,failed to give appreciable amounts of the parent drug,Levels of pro-drug in vivo [1]: dropped rapidly; solubility ([2]; potassium salt): >20000 µg/mL
CC[C@@]1(C)OC2(OC[C@@H]([C@H]3OC(=O)C(O)=C3[O-])O2)C(OC(C)C)=C1c1ccc(S(C)(=O)=O)cc1.[Na+] (stereo partly drawn) [Example 5],superior pharmacokinetic characteristics,> 10000,–,solubility ([2]; monosodium salt): >20000 µg/mL; Stability in solution [3]: rapid decomposition
"CC[C@]1(C)O/C(=N\OCC(=O)[O-])C(OC(C)C)=C1c1ccc(S(C)(=O)=O)cc1.[Na+] [Example 6, [[[(5S)-5-ethyl-5-methyl-3-(1-methylethoxy)-4-[4-(methylsulfonyl)phenyl]-2(5H)-furanylidene]amino]oxy]acetic acid sodium salt]",–,> 10000,failed to give appreciable amounts of the parent drug,Levels of pro-drug in vivo [1]: dropped rapidly; solubility ([2]; sodium salt): 10000 µg/mL
"CC[C@]1(C)OC(=O)C(OC(C)C)=C1c1ccc(S(C)(=O)=O)cc1 [parent drug, 5(S)-ethyl-3-isopropoxy-4-(4-methanesulfonylphenyl)-5-methyl-5H-furan-2-one]",–,–,–,Infarct volume (infarct volume): reduction in infarct volume; Water solubility [4]: poor water solubility
